Assay results from patent publication US7479385B2, “Sugar kinases with expanded substrate specificity and their use” (Wisconsin Alumni Research Foundation, priority 2003, dated 2009).
Where two headings read alike, the source gives them in different places.

Assays:
[1] = molecular target: T1, E. coli GalK M173L mutant (Escherichia coli, UniProt P0A6T3, M173L); test: Substrate screen / percent conversion of 45 sugars, M173L; type: biochemical
T1 construct: His-tag (concluded from Ni-NTA purification and vector pET15b); made in house
T1 sequence (P0A6T3 whole entry M173L): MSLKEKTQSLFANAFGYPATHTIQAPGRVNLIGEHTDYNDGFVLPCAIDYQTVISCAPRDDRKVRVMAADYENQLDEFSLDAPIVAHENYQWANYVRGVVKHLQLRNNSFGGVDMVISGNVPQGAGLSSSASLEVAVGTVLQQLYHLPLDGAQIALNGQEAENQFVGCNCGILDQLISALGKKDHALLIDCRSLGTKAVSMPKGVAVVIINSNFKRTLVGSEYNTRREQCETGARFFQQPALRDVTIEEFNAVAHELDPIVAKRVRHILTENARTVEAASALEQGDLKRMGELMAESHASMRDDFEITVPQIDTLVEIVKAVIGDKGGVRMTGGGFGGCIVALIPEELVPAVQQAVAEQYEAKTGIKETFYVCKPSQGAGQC
From the text: (§1) Characterization of GalK Mutants. […] The mutant enzymes were purified by using metal affinity chromatography on Ni-NTA Spin Columns (QIAGEN, Valencia, Calif.) and fractions containing homogenous protein were collected, concentrated and quantified using the Bradford protein assay. The DNS assay was used to assess the substrate specificity of the purified GalK mutants as previously described. […] For each sugar, the DNS assay was used to monitor the reaction progress and control assays in the absence of enzyme or sugar were performed in parallel. Standard curves for each sugar were prepared as described. To assess general percent conversion, each reaction contained 15.0 (M enzyme, 8 mM sugar, 14 mM ATP and 3.5 mM MgCl2. The reactions were incubated at 37° C. for 3 hrs after which the reactions were quenched with MeOH, centrifuged (10 min, 12,000 rpm) and then the supernatant (diluted 20-fold) submitted for LC-MS and MS/MS analysis. For monosaccharide kinetic data determination, the sugar concentration was varied over a range of 1-8 mM, under saturating ATP (14 mM). Reaction progress was assessed via the DNS assay, wherein a change in absorbance at 575 nm as a function of time was obtained and the initial velocity determined by the slope of the linear phase in the progress curve. The kinetic data was analyzed using Enzyme Kinetics Module software (SSPS, Inc., Chicago, Ill.) as previously described.
(§2) Characterization of Engineered E. coli GalK Mutants.

[2] = molecular target: T2, E. coli GalK Y371H mutant (Escherichia coli, UniProt P0A6T3, Y371H); type: biochemical
T2 construct: His-tag (concluded from Ni-NTA purification and vector pET15b); made in house; host or cells: E. coli BL21-Gold (DE3), vector pET15b
T2 sequence (P0A6T3 whole entry Y371H): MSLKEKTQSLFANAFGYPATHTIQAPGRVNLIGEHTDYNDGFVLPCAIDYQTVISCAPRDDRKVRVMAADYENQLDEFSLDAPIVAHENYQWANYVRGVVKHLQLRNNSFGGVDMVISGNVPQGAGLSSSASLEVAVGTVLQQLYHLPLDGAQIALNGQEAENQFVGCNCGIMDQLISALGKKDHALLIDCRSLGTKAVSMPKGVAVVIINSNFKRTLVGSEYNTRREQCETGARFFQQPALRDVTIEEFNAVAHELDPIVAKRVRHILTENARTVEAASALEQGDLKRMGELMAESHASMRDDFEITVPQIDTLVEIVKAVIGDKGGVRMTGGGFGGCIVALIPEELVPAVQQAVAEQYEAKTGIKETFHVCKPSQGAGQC
From the text: as §1, §2

wild-type E. coli GalK [3] = molecular target: T3, wild-type E. coli GalK (Escherichia coli, UniProt P0A6T3); type: biochemical
T3 construct: made in house
T3 sequence (P0A6T3 1-382): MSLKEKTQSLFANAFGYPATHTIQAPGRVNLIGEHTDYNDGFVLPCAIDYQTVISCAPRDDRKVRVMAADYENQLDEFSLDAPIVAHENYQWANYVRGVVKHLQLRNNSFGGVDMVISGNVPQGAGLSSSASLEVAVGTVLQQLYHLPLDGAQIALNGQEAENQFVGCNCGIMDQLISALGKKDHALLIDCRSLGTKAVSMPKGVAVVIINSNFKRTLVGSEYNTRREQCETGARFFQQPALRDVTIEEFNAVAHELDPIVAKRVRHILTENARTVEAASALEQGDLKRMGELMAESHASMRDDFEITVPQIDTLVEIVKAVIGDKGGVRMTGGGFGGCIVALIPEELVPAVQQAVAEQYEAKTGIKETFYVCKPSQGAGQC
From the text: as §1, §2

[4] = molecular target: T4, E. coli double M173L-Y371H mutant GalK (Escherichia coli, UniProt P0A6T3, M173L/Y371H); test: Substrate screen / percent conversion of 45 sugars, M173L-Y371H; type: biochemical
T4 construct: His-tag (concluded from Ni-NTA purification and vector pET15b); made in house
T4 sequence (P0A6T3 whole entry M173L/Y371H): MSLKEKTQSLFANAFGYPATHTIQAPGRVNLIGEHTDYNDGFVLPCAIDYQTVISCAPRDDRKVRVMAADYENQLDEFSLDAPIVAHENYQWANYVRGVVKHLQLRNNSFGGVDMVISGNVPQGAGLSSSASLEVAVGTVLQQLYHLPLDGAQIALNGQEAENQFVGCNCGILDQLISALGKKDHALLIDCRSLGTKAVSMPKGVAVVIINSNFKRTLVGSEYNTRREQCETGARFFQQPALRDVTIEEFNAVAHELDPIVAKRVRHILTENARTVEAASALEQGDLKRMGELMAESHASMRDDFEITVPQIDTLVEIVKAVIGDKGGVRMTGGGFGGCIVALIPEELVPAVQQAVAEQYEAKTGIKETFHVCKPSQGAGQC
From the text: as §1, with “The reactions were incubated at 37° C. for 3 hrs after which the reactions were quenched with MeOH, centrifuged (10 min, 12,000 rpm) and then the supernatant (diluted 20-fold) submitted for LC-MS and MS/MS analysis.” left out
as §2

Y371H-M173L GalK = molecular target: T5, Y371H-M173L GalK (Escherichia coli, UniProt P0A6T3, M173L/Y371H); test: In vivo conversion of fed unnatural sugars to sugar-1-phosphates in E. coli host overexpressing GalK double mutant; type: cell-based; details: sugar fed at 4 mM to E. coli overexpressing Y371H-M173L GalK, 16° C., 16 hr; fluorescence HPLC after labelling with 50
T5 construct: His-tag (concluded: same plasmid pGalKMLYH in pET-15b whose product was purified on Ni-NTA); expressed in transfected cells; host or cells: E. coli host carrying pGalKMLYH (pET-15b), IPTG-induced at 16 °C
T5 sequence (P0A6T3 whole entry M173L/Y371H): as above
From the text: FIG. 9. In vivo GalK-catalyzed sugar-1-phosphate production. (a) Experimental overview using 6-azido-6-deoxy-D-galactose (22) as an example: 22 is fed to an E. coli host expressing the M173L-Y371H GalK double mutant and the reactants and products subsequently labeled using a […] with the fluorescent tag 50. (b) HPLC chromatographs of bioconversions: i)22 with Y371H-M173L GalK; ii)46 with Y371H-M173L GalK; iii) 22 with wild-type GalK. MS: 50, calculated for C20H25N3O3S 387.2, found m/z 386.1 [M−H]^−; 51, calculated for C26H37N6O11PS 672.2, found m/z 671.2 [M−H]^−; 52, calculated for C26H36N6O8S 592.2, found m/z 591.2 [M−H]
In Vivo Conversion Analysis. […] The reaction mixture was subsequently centrifuged to remove CuI and the supernatant (diluted 2-fold) directly analyzed by HPLC and LC-MS calculated for C26H37N6O11PS 672.20, found m/z […] 671.20.
To assess the Y371H-M173L GalK-catalyzed in vivo production of unnatural sugar-1-phosphates (FIG. 9a), the unnatural sugars (22 or 46, 4 mM final concentration) were fed to an E. coli host (40 mL culture) which overexpressed the promiscuous GalK. After a designated time, the extracts were analyzed via the specific attachment of a fluorescent tag (50), to both starting material (22 or 46) and desired sugar-1-phosphate products, using 1,3-dipolar cycloaddition. […]

[5] = molecular target: T6, E. coli GalK mutant M173L (Escherichia coli, UniProt P0A6T3, M173L); test: Steady-state kinetic profiling (DNS assay), Table 2, M173L; type: biochemical; details: sugar 1-8 mM, saturating ATP (14 mM)
T6 construct: His-tag (concluded from Ni-NTA purification and vector pET15b); made in house
T6 sequence (P0A6T3 whole entry M173L): as the sequence (P0A6T3 whole entry M173L) above
From the text: as §1, with “The kinetic data was analyzed using Enzyme Kinetics Module software (SSPS, Inc., Chicago, Ill.) as previously described.” left out

[6] = molecular target: T7, E. coli GalK double mutant M173L-Y371H (Escherichia coli, UniProt P0A6T3, M173L/Y371H); test: Steady-state kinetic profiling (DNS assay), Table 2, M173L-Y371H; type: biochemical; details: sugar 1-8 mM, saturating ATP (14 mM)
T7 construct: His-tag (concluded from Ni-NTA purification and vector pET15b); made in house
T7 sequence (P0A6T3 whole entry M173L/Y371H): as the sequence (P0A6T3 whole entry M173L/Y371H) above
From the text: as §1, with “The kinetic data was analyzed using Enzyme Kinetics Module software (SSPS, Inc., Chicago, Ill.) as previously described.” left out

L. lactis wild-type GalK = molecular target: T8, L. lactis wild-type GalK (Lactococcus lactis subsp. lactis, UniProt Q9R7D7); details: in vitro, cited from earlier work
T8 sequence (Q9R7D7 1-399): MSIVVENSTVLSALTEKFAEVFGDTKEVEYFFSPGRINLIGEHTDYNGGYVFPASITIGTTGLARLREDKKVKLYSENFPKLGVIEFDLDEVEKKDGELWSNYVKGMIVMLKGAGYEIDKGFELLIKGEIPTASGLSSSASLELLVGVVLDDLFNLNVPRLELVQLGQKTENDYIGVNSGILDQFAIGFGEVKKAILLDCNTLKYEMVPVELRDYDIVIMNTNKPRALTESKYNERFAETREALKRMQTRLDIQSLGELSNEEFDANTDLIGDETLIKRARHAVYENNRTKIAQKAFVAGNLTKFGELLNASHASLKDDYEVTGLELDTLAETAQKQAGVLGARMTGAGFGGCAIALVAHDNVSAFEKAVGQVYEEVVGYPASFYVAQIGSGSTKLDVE

L. lactis GalK Y385H = L. lactis GalK Y385H (Lactococcus lactis subsp. lactis, UniProt Q9R7D7, Y385H); details: cited from earlier work
Chain of L. lactis GalK Y385H (Q9R7D7 whole entry Y385H): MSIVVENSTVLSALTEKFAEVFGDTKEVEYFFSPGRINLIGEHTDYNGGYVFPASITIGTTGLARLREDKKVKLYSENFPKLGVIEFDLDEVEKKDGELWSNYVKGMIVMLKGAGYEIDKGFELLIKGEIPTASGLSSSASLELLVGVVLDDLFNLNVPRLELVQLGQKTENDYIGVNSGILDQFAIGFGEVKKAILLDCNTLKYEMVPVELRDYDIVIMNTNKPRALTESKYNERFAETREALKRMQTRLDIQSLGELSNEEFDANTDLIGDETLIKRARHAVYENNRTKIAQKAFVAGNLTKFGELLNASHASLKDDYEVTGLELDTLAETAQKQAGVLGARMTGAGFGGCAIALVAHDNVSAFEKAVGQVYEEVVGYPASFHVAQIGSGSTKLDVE

wild-type E. coli GalK [7] = molecular target: T3, wild-type E. coli GalK; test: Kinetics and substrate specificity of wild-type GalK with sugar substrates (DNS assay), Table 1; type: biochemical
GalK variant Y371H = molecular target: T9, GalK variant Y371H (Escherichia coli, UniProt P0A6T3, Y371H); test: Preparative phosphorylation of L-altrose by GalK Y371H, conversion by DNS assay; type: biochemical, E. coli; details: within four hours, 37° C., Y371H 150 μg mL^−1
T9 construct: His-tag (concluded from Ni-NTA purification and vector pET15b); made in house; host or cells: E. coli BL21-Gold (DE3), vector pET15b
T9 sequence (P0A6T3 whole entry Y371H): as the sequence (P0A6T3 whole entry Y371H) above
Method: Preparative phosphorylation of L-altrose and product characterization. […] To this solution, ATP (125 mg, 0.23 mmol), MgCl2.6H2O (15.3 mg, 0.07 mmol) were added, the mixture incubated at 37° C. for 5 min, the reaction initiated via the addition of enzyme (Y371H) to a final concentration of 150 μg mL^−1 and reaction progress monitored by TLC. After completion, the mixture was diluted 5-fold in ddH2O and applied to a 200 mL anion exchange column (Q-Sepharose fast flow, Amersham, Piscataway, N.J.). The column was eluted with a gradient of 0-400 mM NaCl and the active fraction was collected and evaporated under reduced pressure. The crude product was desalted on a P-2 gel filtration column (The Nest Group, Southboro, Mass.) to give 16.1 mg of purified product (yield: 52%). [α]D=3.5° (c=1, H2O) ^1H NMR (D2O): 5.48 (dd, J=8.6, 1.8 Hz, 1H), 4.14 (dd, 5.3, 3.3 Hz, 1H), 3.99 (m, 1H), 3.98 (dd, J=4.3, 1.8 Hz, 1H), 3.91 (d, J=3.3, 1H), 3.89 (m, 1H), 3.84 (dd, J=12.1, 7.8 Hz, 1H); ^13C NMR (D2O): 94.10, 76.23, 70.70, 69.99, 65.68, 62.21; ^31P NMR (D2O): 3.77; MS: calculated for C6H13O9P 260.0, found m/z 259.0 [M−H]^−.
Confirmation of L-sugar conversion. […] To confirm the evolved enzyme retains regio- and stereoselectivity with L-sugar substrates, a representative L-sugar reaction product was further characterized. […]

GalK mutant Y371H = GalK mutant Y371H (Escherichia coli, UniProt P0A6T3, Y371H); details: DNS assay and thin layer chromatography
Chain of GalK mutant Y371H (P0A6T3 whole entry Y371H): as above

[N-]=[N+]=NC[C@@H](O)[C@@H](O)[C@H](O)[C@@H](O)C=O [6-azido-6-deoxy-D-glucose (46), 6-azido-6-deoxy-D-glucose]
substrate of M173L (in words) [1]: failed
substrate of Y371H (in words) [2]: failed
substrate of wild-type E. coli GalK (in words) (wild-type E. coli GalK [3]): not a substrates
kinase activity of M173L-Y371H double mutant (in words) [4]: accept
in vitro yield (conversion) quoted for comparison with in vivo ([4]; in vitro): ~50%
in vitro conversion by M173L-Y371H ([4]; in vitro, in 2 hrs): ~15%
in vivo conversion to sugar-1-phosphate (Y371H-M173L GalK): ~15%

O=C[C@H](O)[C@@H](O)[C@H](O)[C@H](O)CO [D-Glc (27), D-glucose]
Km ([5]; read-out: Km, M173L (D-Glc column)): 2.6 mM
Vmax, M173L [5]: 0.02 (±0.01) mM min^−1
Km ([6]; read-out: Km, M173L-Y371H (D-Glc column)): 4 mM
Vmax, M173L-Y371H [6]: 0.02 (±0.01) mM min^−1
conversion by M173L ([1]; in 3 hr, 37° C., 8 mM sugar, 14 mM ATP, 3.5 mM MgCl2, 15.0 μM enzyme): 20%
conversion / activity with L. lactis wild-type GalK (in words) (L. lactis wild-type GalK): weak activity
conversion / activity with L. lactis wild-type GalK (in words) (L. lactis wild-type GalK; listed as D-glucose (27)): in vitro conversion
activity with L. lactis GalK Y385H (in words) (L. lactis GalK Y385H): weak activity

O=C[C@H](O)[C@@H](O)[C@@H](O)[C@@H](O)CO [L-Alt (16), L-altrose]
substrate of wild-type GalK (in words) (wild-type E. coli GalK [7]): failed as wild-type GalK substrates
conversion of L-altrose (GalK variant Y371H): 91%
kinase activity / turnover by GalK Y371H (in words) (GalK mutant Y371H): substantial degree of kinase activity
